Legend:
Assay type in all cases: in vivo
[1] = test system: johnsongrass (Sorghum halepense); experiment: Test E greenhouse herbicide test, pre- and postemergence; settings: Preemergence
Summary of the method: (§1)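 Seedlings reaching 2–18 cm (1- to 4-leaf stage) received foliar treatment, while seeds in silt loam received a soil surface spray; the vehicle in each case was a non-phytotoxic solvent mixture including surfactant. Visual scoring versus controls followed 14–21 d later on a 0–100 scale.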

soybean (Glycine max) = experiment: as above
Summary of the method: as §1

[2] = test system: crabgrass, large (large crabgrass, Digitaria sanguinalis); experiment: as above; settings: Preemergence
Summary of the method: as §1

[3] = test system: foxtail, giant (giant foxtail, Setaria faberii); experiment: as above; settings: Preemergence
Summary of the method: as §1

[4] = test system: pigweed, palmer (palmer pigweed, Amaranthus palmeri); experiment: as above
Summary of the method: as §1

[5] = test system: velvetleaf (Abutilon theophrasti); experiment: as above; settings: Preemergence
Summary of the method: as §1

[6] = test system: momingglory (Ipomoea coccinea); experiment: as above; settings: Preemergence
Summary of the method: as §1

[7] = test system: nightshade (eastern black nightshade, Solanum ptycanthum); experiment: as above; settings: Preemergence
Summary of the method: as §1

[8] = test system: arrowleaf sida (Sida rhombifolia); experiment: as above
Summary of the method: as §1

[9] = test system: dayflower (Virginia (VA) dayflower, Commelina virginica); experiment: as above
Summary of the method: as §1

kochia (Kochia scoparia) = experiment: as above
Summary of the method: as §1

[10] = test system: horseweed (Conyza canadensis); experiment: as above
Summary of the method: as §1

[11] = test system: foxtail, green (green foxtail, Setaria viridis); experiment: as above; settings: Preemergence
Summary of the method: as §1

[12] = test system: Italian ryegrass (Lolium multiflorum); experiment: as above
Summary of the method: as §1

[13] = test system: waterhemp_RES1 (ALS & Triazine resistant common waterhemp, Amaranthus rudis); experiment: Test E greenhouse herbicide test, postemergence
Summary of the method: (§2)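 Postemergence spray on potted plants, 1–4 leaves, 2–18 cm; greenhouse 14–21 d; visual rating vs controls, 0 (no effect) to 100 (complete control).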

[14] = test system: waterhemp_RES2 (ALS & HPPD resistant common waterhemp, Amaranthus rudis); experiment: Test E greenhouse herbicide test, postemergence
Summary of the method: as §2

[15] = 31 g ai/ha, scale 0 to 100, 0 no effect, 100 complete control
[16] = 250 g ai/ha, visual, scale 0 no effect to 100 complete control
[17] = 62 g ai/ha, Postemergence, scale 0 to 100 (0 no effect, 100 complete control)
[18] = 62 g ai/ha, Preemergence, scale 0 to 100 (0 no effect, 100 complete control)
[19] = 125 g ai/ha, Postemergence, scale 0 to 100 (0 no effect, 100 complete control)
[20] = 125 g ai/ha, Preemergence, scale 0 to 100 (0 no effect, 100 complete control)
[21] = 250 g ai/ha, Postemergence, scale 0 to 100 (0 no effect, 100 complete control)
[22] = Postemergence, 31 g ai/ha, visual, scale 0 no effect to 100 complete control
[23] = Preemergence, 31 g ai/ha, scale 0 to 100, 0 no effect, 100 complete control
[24] = Preemergence, 250 g ai/ha, visual, scale 0 no effect to 100 complete control
[25] = 62 g ai/ha, scale 0 to 100 (0 no effect, 100 complete control)
[26] = 125 g ai/ha, scale 0 to 100 (0 no effect, 100 complete control)
[27] = 31 g ai/ha, visual, scale 0 no effect to 100 complete control
[28] = 250 g ai/ha, scale 0 to 100 (0 no effect, 100 complete control)
[29] = 16 g ai/ha, scale 0 to 100, 0 no effect, 100 complete control
[30] = Postemergence, 16 g ai/ha, visual, scale 0 no effect to 100 complete control
[31] = Preemergence, 16 g ai/ha, scale 0 to 100, 0 no effect, 100 complete control
[32] = 16 g ai/ha, visual, scale 0 no effect to 100 complete control

Cc1ccc2sc(Br)c(-c3c(O)c(C)nn(C)c3=O)c2c1 [Compound 79]
Plant response rating, Johnsongrass [1, 15]: 70
Plant response rating, Johnsongrass [1, 16]: 65
Plant response rating, Soybean (soybean (Glycine max); [17]): 10
Plant response rating, Soybean (soybean (Glycine max); [18]): 50
Plant response rating, Soybean (soybean (Glycine max); [19]): 15
Plant response rating, Soybean (soybean (Glycine max); [20]): 40
Plant response rating, Soybean (soybean (Glycine max); [21]): 10
Plant response rating, Soybean (soybean (Glycine max); [22]): 0
Plant response rating, Soybean (soybean (Glycine max); [23]): 40
Plant response rating, Soybean (soybean (Glycine max); [24]): 50
Plant response rating, Crabgrass, Large [2, 25]: 0
Plant response rating, Crabgrass, Large [2, 26]: 20
Plant response rating, Crabgrass, Large [2, 15]: 0
Plant response rating, Crabgrass, Large [2, 16]: 30
Plant response rating, Foxtail, Giant [3, 25]: 70
Plant response rating, Foxtail, Giant [3, 26]: 85
Plant response rating, Foxtail, Giant [3, 15]: 60
Plant response rating, Foxtail, Giant [3, 16]: 90
Plant response rating, Pigweed, Palmer [4, 17]: 35
Plant response rating, Pigweed, Palmer [4, 18]: 70
Plant response rating, Pigweed, Palmer [4, 19]: 40
Plant response rating, Pigweed, Palmer [4, 20]: 70
Plant response rating, Pigweed, Palmer [4, 21]: 75
Plant response rating, Pigweed, Palmer [4, 22]: 40
Plant response rating, Pigweed, Palmer [4, 23]: 75
Plant response rating, Pigweed, Palmer [4, 24]: 75
Plant response rating, Velvetleaf [5, 25]: 80
Plant response rating, Velvetleaf [5, 26]: 95
Plant response rating, Velvetleaf [5, 15]: 70
Plant response rating, Velvetleaf [5, 16]: 100
Plant response rating, Morningglory [6, 25]: 85
Plant response rating, Morningglory [6, 26]: 90
Plant response rating, Morningglory [6, 15]: 60
Plant response rating, Morningglory [6, 16]: 100
Plant response rating, Nightshade [7, 25]: 100
Plant response rating, Nightshade [7, 26]: 100
Plant response rating, Nightshade [7, 15]: 80
Plant response rating, Nightshade [7, 16]: 100
Plant response rating, Arrowleaf Sida [8, 17]: 50
Plant response rating, Arrowleaf Sida [8, 18]: 80
Plant response rating, Arrowleaf Sida [8, 19]: 60
Plant response rating, Arrowleaf Sida [8, 20]: 75
Plant response rating, Arrowleaf Sida [8, 21]: 70
Plant response rating, Arrowleaf Sida [8, 22]: 50
Plant response rating, Arrowleaf Sida [8, 23]: 75
Plant response rating, Arrowleaf Sida [8, 24]: 75
Plant response rating, Dayflower, VA [9, 17]: 50
Plant response rating, Dayflower, VA [9, 18]: 70
Plant response rating, Dayflower, VA [9, 19]: 60
Plant response rating, Dayflower, VA [9, 20]: 65
Plant response rating, Dayflower, VA [9, 21]: 65
Plant response rating, Dayflower, VA [9, 22]: 50
Plant response rating, Dayflower, VA [9, 23]: 50
Plant response rating, Dayflower, VA [9, 24]: 70
Plant response rating, Kochia (kochia (Kochia scoparia); [17]): 80
Plant response rating, Kochia (kochia (Kochia scoparia); [18]): 70
Plant response rating, Kochia (kochia (Kochia scoparia); [19]): 90
Plant response rating, Kochia (kochia (Kochia scoparia); [20]): 100
Plant response rating, Kochia (kochia (Kochia scoparia); [21]): 98
Plant response rating, Kochia (kochia (Kochia scoparia); [22]): 70
Plant response rating, Kochia (kochia (Kochia scoparia); [23]): 50
Plant response rating, Kochia (kochia (Kochia scoparia); [24]): 100
Plant response rating, Horseweed [10, 17]: 95
Plant response rating, Horseweed [10, 18]: 100
Plant response rating, Horseweed [10, 19]: 95
Plant response rating, Horseweed [10, 20]: 100
Plant response rating, Horseweed [10, 21]: 90
Plant response rating, Horseweed [10, 22]: 90
Plant response rating, Horseweed [10, 23]: 100
Plant response rating, Horseweed [10, 24]: 100
Plant response rating, Foxtail, Green [11, 25]: 70
Plant response rating, Foxtail, Green [11, 26]: 80
Plant response rating, Foxtail, Green [11, 15]: 55
Plant response rating, Foxtail, Green [11, 16]: 90
Plant response rating, Ryegrass, Italian [12, 17]: 40
Plant response rating, Ryegrass, Italian [12, 18]: 80
Plant response rating, Ryegrass, Italian [12, 19]: 70
Plant response rating, Ryegrass, Italian [12, 20]: 100
Plant response rating, Ryegrass, Italian [12, 21]: 80
Plant response rating, Ryegrass, Italian [12, 22]: 30
Plant response rating, Ryegrass, Italian [12, 23]: 75
Plant response rating, Ryegrass, Italian [12, 24]: 100
Plant response rating, Waterhemp_RES1 [13, 27]: 50
Plant response rating, Waterhemp_RES1 [13, 25]: 60
Plant response rating, Waterhemp_RES1 [13, 26]: 70
Plant response rating, Waterhemp_RES1 [13, 28]: 75
Plant response rating, Waterhemp_RES2 [14, 27]: 20
Plant response rating, Waterhemp_RES2 [14, 25]: 15
Plant response rating, Waterhemp_RES2 [14, 26]: 15
Plant response rating, Waterhemp_RES2 [14, 28]: 55

CCCC(=O)Oc1c(C)nn(C)c(=O)c1-c1c(C)sc2ccc(C)cc12 [Compound 105]
Plant response rating, Johnsongrass [1, 25]: 20
Plant response rating, Johnsongrass [1, 26]: 20
Plant response rating, Johnsongrass [1, 29]: 0
Plant response rating, Johnsongrass [1, 15]: 0
Plant response rating, Soybean (soybean (Glycine max); [18]): 0
Plant response rating, Soybean (soybean (Glycine max); [19]): 25
Plant response rating, Soybean (soybean (Glycine max); [20]): 75
Plant response rating, Soybean (soybean (Glycine max); [30]): 0
Plant response rating, Soybean (soybean (Glycine max); [22]): 10
Plant response rating, Soybean (soybean (Glycine max); [31]): 0
Plant response rating, Soybean (soybean (Glycine max); [23]): 0
Plant response rating, Crabgrass, Large [2, 25]: 50
Plant response rating, Crabgrass, Large [2, 26]: 75
Plant response rating, Crabgrass, Large [2, 29]: 0
Plant response rating, Crabgrass, Large [2, 15]: 0
Plant response rating, Foxtail, Giant [3, 25]: 35
Plant response rating, Foxtail, Giant [3, 26]: 75
Plant response rating, Foxtail, Giant [3, 29]: 0
Plant response rating, Foxtail, Giant [3, 15]: 0
Plant response rating, Pigweed, Palmer [4, 17]: 70
Plant response rating, Pigweed, Palmer [4, 18]: 98
Plant response rating, Pigweed, Palmer [4, 19]: 70
Plant response rating, Pigweed, Palmer [4, 20]: 90
Plant response rating, Pigweed, Palmer [4, 30]: 75
Plant response rating, Pigweed, Palmer [4, 22]: 70
Plant response rating, Pigweed, Palmer [4, 31]: 0
Plant response rating, Pigweed, Palmer [4, 23]: 0
Plant response rating, Velvetleaf [5, 25]: 70
Plant response rating, Velvetleaf [5, 26]: 95
Plant response rating, Velvetleaf [5, 29]: 0
Plant response rating, Velvetleaf [5, 15]: 50
Plant response rating, Morningglory [6, 25]: 70
Plant response rating, Morningglory [6, 26]: 60
Plant response rating, Morningglory [6, 29]: 40
Plant response rating, Morningglory [6, 15]: 20
Plant response rating, Nightshade [7, 25]: 98
Plant response rating, Nightshade [7, 26]: 98
Plant response rating, Nightshade [7, 29]: 0
Plant response rating, Nightshade [7, 15]: 50
Plant response rating, Arrowleaf Sida [8, 17]: 60
Plant response rating, Arrowleaf Sida [8, 18]: 40
Plant response rating, Arrowleaf Sida [8, 19]: 70
Plant response rating, Arrowleaf Sida [8, 20]: 50
Plant response rating, Arrowleaf Sida [8, 30]: 50
Plant response rating, Arrowleaf Sida [8, 22]: 60
Plant response rating, Arrowleaf Sida [8, 31]: 0
Plant response rating, Arrowleaf Sida [8, 23]: 0
Plant response rating, Dayflower, VA [9, 17]: 50
Plant response rating, Dayflower, VA [9, 18]: 0
Plant response rating, Dayflower, VA [9, 19]: 60
Plant response rating, Dayflower, VA [9, 20]: 10
Plant response rating, Dayflower, VA [9, 30]: 30
Plant response rating, Dayflower, VA [9, 22]: 30
Plant response rating, Dayflower, VA [9, 31]: 0
Plant response rating, Dayflower, VA [9, 23]: 0
Plant response rating, Kochia (kochia (Kochia scoparia); [17]): 90
Plant response rating, Kochia (kochia (Kochia scoparia); [18]): 35
Plant response rating, Kochia (kochia (Kochia scoparia); [19]): 100
Plant response rating, Kochia (kochia (Kochia scoparia); [20]): 100
Plant response rating, Kochia (kochia (Kochia scoparia); [30]): 80
Plant response rating, Kochia (kochia (Kochia scoparia); [22]): 80
Plant response rating, Kochia (kochia (Kochia scoparia); [31]): 0
Plant response rating, Kochia (kochia (Kochia scoparia); [23]): 0
Plant response rating, Horseweed [10, 17]: 85
Plant response rating, Horseweed [10, 18]: 100
Plant response rating, Horseweed [10, 20]: 100
Plant response rating, Horseweed [10, 30]: 80
Plant response rating, Horseweed [10, 22]: 85
Plant response rating, Horseweed [10, 31]: 0
Plant response rating, Horseweed [10, 23]: 0
Plant response rating, Foxtail, Green [11, 25]: 30
Plant response rating, Foxtail, Green [11, 26]: 40
Plant response rating, Foxtail, Green [11, 29]: 0
Plant response rating, Foxtail, Green [11, 15]: 0
Plant response rating, Ryegrass, Italian [12, 17]: 70
Plant response rating, Ryegrass, Italian [12, 18]: 95
Plant response rating, Ryegrass, Italian [12, 19]: 80
Plant response rating, Ryegrass, Italian [12, 20]: 100
Plant response rating, Ryegrass, Italian [12, 30]: 30
Plant response rating, Ryegrass, Italian [12, 22]: 50
Plant response rating, Ryegrass, Italian [12, 31]: 75
Plant response rating, Ryegrass, Italian [12, 23]: 90
Plant response rating, Waterhemp_RES1 [13, 32]: 80
Plant response rating, Waterhemp_RES1 [13, 27]: 80
Plant response rating, Waterhemp_RES1 [13, 26]: 100
Plant response rating, Waterhemp_RES2 [14, 32]: 40
Plant response rating, Waterhemp_RES2 [14, 27]: 50
Plant response rating, Waterhemp_RES2 [14, 26]: 70

From patent US10597388B2, “Pyridazinone herbicides” (FMC CORPORATION, priority 2014, dated 2020)
